Results on 22 compounds are retold here after patent EP4782453A1 (Beyang Therapeutics Co., Ltd., priority 2023, dated 2025).

Experiment [1] deals with MOLM-13 (carrying MLL-AF9). Nature of the experiment: Inhibition of proliferation of human tumor cells (Alamar Blue, 7 days), MOLM-13. Format: cell-based. The conditions noted are these: Homo sapiens, MOLM-13 cells (carrying MLL-AF9), method calls the value GI50. An outline of the steps:
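Seven-day continuous compound exposure in duplicate wells, with 0.1% DMSO vehicle. Proliferation is quantified by Alamar Blue fluorescence and expressed as GI50, using Day 0 readings as the low reference.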

The next experiment has as its system MEIS1 gene expression. Kind of experiment: Inhibition of MEIS1 gene expression in human tumor cells (qRT-PCR), MV-4-11. The format is cell-based. The conditions noted are these: MV4-11, MV-4-11 (carrying MLL-AF4), 48 hours of incubation, relative MEIS1 gene expression vs GAPDH, read-out: MV-4-11 MEISI EC50. The source says: Experimental Example 3: Evaluation of Inhibitory Activity of Compounds Against MEISI Gene Expression in Human Tumor Cells
The effect of test samples on MEIS1 gene expression in vitro cultured human leukemia cells MV-4-11 (carrying MLL-AF4), MOLM-13 (carrying MLL-AF9), and OCI-AML3 (carrying NPM1c) was studied.
• Human acute lymphoblastic leukemia cells MV-4-11, purchased from American Type Culture Collection, Catalog Number: CRL-9591; • Human acute myeloid leukemia cells MOLM-13, purchased from COBIOER BIOSCIENCES CO., LTD, Catalog Number: CBP60678; • Human acute myeloid leukemia cells OCI-AML3, purchased from COBIOER BIOSCIENCES CO., LTD, Catalog Number: CBP60817; • MEIS1 Primer/Probe, purchased from IDT, Catalog Number: 40831613; and • GAPDH Primer/Probe, purchased from IDT, Catalog Number: 22214836.
MV-4-11 cells were cultured in an IMDM medium containing 10% fetal bovine serum, or MOLM-13 and OCI-AML3 cells were cultured in an RPMI-1640 medium containing 20% fetal bovine serum, each supplemented with 100 U·mL^-1 penicillin and 100 µg·mL^-1 streptomycin. These cells were cultured at 37°C with 5% CO2. The suspensions of individual cell lines were prepared in their respective media and seeded into 48-well plates at a density of 100,000 cells/well. On the day of the experiment, a compound stock solution was diluted in a 6-fold gradient using DMSO. Each gradient-diluted stock solution was then further diluted 250-fold with a complete medium to prepare a series of working solutions at different concentrations. Next, 250 µL of working solution (containing the complete medium with a 2-fold serial concentration of the test compound or a positive control compound, or containing a control complete medium) was added to each well. After 48 hours of incubation, cells from the 48-well plate were collected into 1 mL centrifuge tubes, centrifuged at 1000 rpm for 5 minutes, and the complete medium was removed. Cells were washed twice with 1 mL PBS and centrifuged to remove PBS. Total RNA was extracted using the RNeasy Mini Kit (250) (QIAGEN, 74106). The threshold cycle (Ct) value for gene expression was determined using the HiScript II U+ One Step qRT-PCR Probe Kit (Vazyme) (Vazyme, Q223-01), with 3 replicates per sample. The prepared reaction mixture was placed in an ABI 7500 real-time PCR instrument, and the reaction proceeded following the procedures below. [formula]
Next, for the relative MEIS1 gene expression, the concentration (EC50) that inhibits 50% of relative MEIS1 gene expression was calculated using GraphPad Prism 8 software.

The structures appear in SMILES notation.

As to `CCN(C(=O)c1cc(F)ccc1-c1cc(C2CN([C@H](CCCN3CCN(CCO)CC3)C(C)C)C2)cn2c(C)ncc12)C(C)C` [Example 398, N-ethyl-5-fluoro-2-(6-{1-[(3R)-6-[4-(2-hydroxyethyl)piperazin-1-yl]-2-methylhexan-3-yl]azacyclobutan-3-yl}-3-methylimidazo[1,5-a]pyridin-8-yl)-N-(isopropyl)benzamide], the half-maximal inhibitory concentration (IC50) in experiment [1] (168 h) was found to be 4.3 nM. For the same compound, in the experiment on MEIS1 gene expression, the EC50 came out at 1.9 nM.

For `Cc1nc(F)c2c(-c3ccc(F)cc3C(=O)N3CCOC[C@H]3C)cc(C3CN([C@H](CO[C@@H]4CCCN(C)C4)C(C)C)C3)cn12` [Example 297-1, (3R)-4-[5-fluoro-2-(1-fluoro-3-methyl-6-{1-[(2S)-3-methyl-1-{[(3R)-1-methylpiperidin-3-yl]oxy}butan-2-yl]azacyclobutan-3-yl}imidazo[1,5-a]pyridin-8yl)benzoyl]-3-methylmorpholine], the IC50 in experiment [1] (168 h) turned out to be 36 nM. The half-maximal effective concentration (EC50) with MEIS1 gene expression was 32 nM.

For `Cc1nc(F)c2c(-c3ccc(F)cc3C(=O)N3CCOC[C@H]3C)cc(C3CN([C@H](CCCN4CCC[C@H](O)C4)C(C)C)C3)cn12` [Example 293], the IC50 in experiment [1] (168 h) was found to be 24 nM. Moreover, the concentration for a half-maximal effect (EC50) in the experiment with MEIS1 gene expression turned out to be 23 nM.

As to `CCN(C(=O)c1cc(F)ccc1-c1cc(C2CN([C@H](CCCN3C4COCC3C4)C(C)C)C2)cn2c(C)ncc12)C(C)C` [Example 423], the IC50 in experiment [1] (168 h) came to 2.7 nM. The EC50 with MEIS1 gene expression worked out at 1.3 nM.

Consider `Cc1nc(F)c2c(-c3ccc(F)cc3C(=O)N3CCOC[C@H]3C)cc(C3CN([C@H](CN4CCN(C)CC4)C(C)C)C3)cn12` [Example 368-2, (3R)-4-[5-fluoro-2-(1-fluoro-3-methyl-6-{1-[(2S)-3-methyl-1-(4-methylpiperazin-1-yl)butan-2-yl]azacyclobutan-3-yl}imidazo[1,5-a]pyridin-8-yl)benzoyl]-3-methylmorpholine], for which the IC50 in experiment [1] (168 h) turned out to be 8.6 nM. The EC50 in the experiment with MEIS1 gene expression turned out to be 7.8 nM.

Turning to `Cc1nc(F)c2c(-c3ccc(F)cc3C(=O)N3[C@H](C)COC[C@H]3C)cc(C3CN(CC4CCOCC4)C3)cn12` [Example 208], the half-maximal inhibitory concentration (IC50) in experiment [1] (168 h) came out at 9.6 nM. The concentration giving a half-maximal response (EC50) with MEIS1 gene expression was found to be 23 nM.

Turning to `CCS(=O)(=O)N[C@H]1CC[C@H](CN2CC(c3cc(-c4ccc(F)cc4C(=O)N4[C@H](C)COC[C@H]4C)c4c(F)nc(C)n4c3)C2)CC1` [Example 197, N-[(1r,4r)-4-{[3-(8-{2-[(3R,5R)-3,5-dimethylmorpholin-4-carbonyl]-4-fluorophenyl}-1-fluoro-3-methylimidazo[1,5-a]pyridin-6-yl)azacyclobutan-1-yl]methyl}cyclohexyl]ethan-1-sulfonamide], in experiment [1] (MOLM-13, 168 h), the IC50 worked out at 10.2 nM. Moreover, the EC50 in the experiment on MEIS1 gene expression stood at 14 nM.

Take `CO[C@@H]1CCCN(CCC[C@H](C(C)C)N2CC(c3cc(-c4ccc(F)cc4C(=O)N4CCOC[C@H]4C)c4c(F)nc(C)n4c3)C2)C1` [Example 305]: the IC50 in experiment [1] (168 h) worked out at 12 nM. Besides, the EC50 in the experiment on MEIS1 gene expression was 7.6 nM.

As for `Cc1nc(F)c2c(-c3ccc(F)cc3C(=O)N3CCOC[C@H]3C)cc(C3CN(C(CC[C@@H]4COCCN4)C(C)C)C3)cn12` (stereo partly drawn) [Example 371, (3R)-4-{5-fluoro-2-[1-fluoro-3-methyl-6-(1-{4-methyl-1-[(3R)-morpholin-3-yl]pentan-3-yl}azacyclobutan-3-yl)imidazo[1,5-a]pyridin-8-yl]benzoyl}-3-methylmorpholine], the IC50 in experiment [1] (168 h) worked out at 5.3 nM. Besides, the EC50 in the experiment on MEIS1 gene expression stood at 3 nM.

Take `CCN(C(=O)c1cc(F)ccc1-c1cc(C2CN([C@H](CCCN3C[C@H]4C[C@@H]3CO4)C(C)C)C2)cn2c(C)ncc12)C(C)C` [Example 379, N-ethyl-5-fluoro-2-(3-methyl-6-{1-[(3R)-2-methyl-6-[(1R,4R)-2-oxa-5-azabicyclo[2.2.1]heptan-5-yl]hexan-3-yl]azacyclobutan-3-yl}imidazo[1,5-a]pyridin-8-yl)-N-(isopropyl)benzamide]: the IC50 in experiment [1] (168 h) turned out to be 2.5 nM. Further, the EC50 in the experiment on MEIS1 gene expression is 2.4 nM.

`Cc1nc(F)c2c(-c3ccc(F)cc3C(=O)N3CCOCC3C)cc(C3CN(C(CCCN4CCCC(O)C4)C(C)C)C3)cn12` (stereo not drawn) [Example 292]: in experiment [1] (168 h), the IC50 amounted to 13 nM. Also, the EC50 in the experiment with MEIS1 gene expression was found to be 15 nM.

Consider `CNC(=O)N1CCC([C@H](C)N2CC(c3cc(-c4ccc(F)cc4C(=O)N4CCOC[C@H]4C)c4c(F)nc(C)n4c3)C2)CC1` [Example 264-2], for which the concentration for half-maximal inhibition (IC50) in experiment [1] (168 h) turned out to be 12 nM. The EC50 in the experiment with MEIS1 gene expression stood at 18 nM.

As to `COC1CCN(CCC[C@H](C(C)C)N2CC(c3cc(-c4ccc(F)cc4C(=O)N4CCOC[C@H]4C)c4c(F)nc(C)n4c3)C2)CC1` [Example 204, (3R)-4-[5-fluoro-2-(1-fluoro-6-{1-[(3R)-6-(4-methoxypiperidin-1-yl)-2-methylhexan-3-yl]azacyclobutan-3-yl}-3-methylimidazo[1,5-a]pyridin-8-yl)benzoyl]-3-methylmorpholine], the IC50 in experiment [1] (168 h) was found to be 11.2 nM. Moreover, the EC50 in the experiment with MEIS1 gene expression stood at 15 nM.

Turning to `Cc1nc(F)c2c(-c3ccc(F)cc3C(=O)N3CCOC[C@H]3C)cc(C3CN([C@H](CCCN4CCC(F)CC4)C(C)C)C3)cn12` [Example 314], in experiment [1] (168 h), the IC50 stood at 7.3 nM. Moreover, the EC50 in the experiment with MEIS1 gene expression is 13 nM.

Consider `CCNC(=O)N1CCC(CN2CC(c3cc(-c4ccc(F)cc4C(=O)N4CCOC[C@H]4C)c4c(F)nc(C)n4c3)C2)CC1` [Example 261], for which the IC50 in experiment [1] (168 h) amounted to 23 nM. The EC50 with MEIS1 gene expression was determined as 8.5 nM.

Take `COCCN(C)CCCC(C(C)C)N1CC(c2cc(-c3ccc(F)cc3C(=O)N3CCOCC3C)c3cnn(C)c3c2)C1` (stereo not drawn) [Example 185]: the IC50 in experiment [1] (168 h) was 70 nM. Besides, the concentration for a half-maximal effect (EC50) with MEIS1 gene expression was determined as 55 nM.

`Cc1ncc2c(-c3ccc(F)cc3C(=O)N3CCOC[C@H]3C)cc(C3CN([C@H](CCCN4CCN(C)CC4)C(C)C)C3)cn12` [Example 323-2, (3R)-4-[5-fluoro-2-(3-methyl-6-{1-[(3R)-2-methyl-6-(4-methylpiperazin-1-yl)hexan-3-yl]azacyclobutan-3-yl}imidazo[1,5-a]pyridin-8-yl)benzoyl]-3-methylmorpholine]: the half-inhibitory concentration (IC50) in experiment [1] (168 h) is 15 nM. Besides, the EC50 with MEIS1 gene expression came out at 8.6 nM.

Regarding `Cc1nc(F)c2c(-c3ccc(F)cc3C(=O)N3CCOC[C@H]3C)cc(C3CN([C@H](CO[C@H]4CCCN(C)C4)C(C)C)C3)cn12` [Example 321-2, (3R)-4-[5-fluoro-2-(1-fluoro-3-methyl-6-{1-[(2S)-3-methyl-1-{[(3S)-1-methylpiperidin-3-yl]oxy}butan-2-yl]azacyclobutan-3-yl}imidazo[1,5-a]pyridin-8yl)benzoyl]-3-methylmorpholine], the IC50 in experiment [1] (168 h) is 17 nM.

With `CC(=O)N1CCC([C@H](C)N2CC(c3cc(-c4ccc(F)cc4C(=O)N4CCOC[C@H]4C)c4c(F)nc(C)n4c3)C2)CC1` [Example 257-2, 1-{4-[(1S)-1-[3-(1-fluoro-8-{4-fluoro-2-[(3R)-3-methylmorpholin-4-carbonyl]phenyl}-3-methylimidazo[1,5-a]pyridin-6-yl)azacyclobutan-1-yl]ethyl]piperidin-1-yl}ethan-1-one], in experiment [1] (168 h), the IC50 came out at 31 nM. The concentration for a half-maximal effect (EC50) in the experiment on MEIS1 gene expression stood at 19 nM.

As for `CC(=O)N1CCC(CN2CC(c3cc(-c4ccc(F)cc4C(=O)N4[C@H](C)COC[C@H]4C)c4c(F)nc(C)n4c3)C2)CC1` [Example 205], the IC50 in experiment [1] (168 h) worked out at 19 nM. Besides, the EC50 in the experiment on MEIS1 gene expression was determined as 18 nM.

With `CCN(C(=O)c1cc(F)ccc1-c1cc(C2CN([C@@H](C)C3CCN(C(=O)CO)CC3)C2)cn2c(C)nc(F)c12)C(C)C` [Example 284-2], in experiment [1] (168 h), the IC50 turned out to be 6.8 nM.

As for `CC[C@@H](C1CCN(C(C)=O)CC1)N1CC(c2cc(-c3ccc(F)cc3C(=O)N3CCOC[C@H]3C)c3c(F)nc(C)n3c2)C1` [Example 280-1, 1-{4-[(1S)-1-[3-(1-fluoro-8-{4-fluoro-2-[(3R)-3-methylmorpholin-4-carbonyl]phenyl}-3-methylimidazo[1,5-a]pyridin-6-yl)azacyclobutan-1-yl]propyl]piperidin-1-yl}ethan-1-one], the IC50 in experiment [1] (168 h) came out at 27 nM. In the experiment on MEIS1 gene expression, the EC50 amounted to 61 nM.
